Earlier results as cited in article PMC12308805, “Ultrahigh-Throughput Virtual Screening Strategies against PPI Targets: A Case Study of STAT Inhibitors” (Journal of Chemical Information and Modeling, 2025).
Numbered stars: 1 amine (or outer) side, 2 acyl side, 3 side chain; on linkers, the order of the positions; unused ones are H or OH. Square brackets hold non-standard residues; d marks the D form. Ends that are not written are not given here. Peptide text beside a SMILES is read from it. * marks the point of attachment. X5 = O=C([C@@H]1[C@@H]2C[C@@H]2CN1[*:1])[*:2]; pY = N[C@@H](Cc1ccc(OP(=O)(O)O)cc1)C(=O)O; Hydrocinnamoyl = O=C(CCc1ccccc1)*; βNA = c1ccc2cc(N*)ccc2c1

Tested on: STAT3
Details: cited from earlier work

Compound	Type (known STAT3 active)
CC(=O)N[C@@H](Cc1ccc(OP(=O)(O)O)cc1)C(=O)N[C@@H](CC(C)C)C(=O)N1C[C@H]2C[C@H]2[C@H]1C(=O)N[C@@H](CCC(N)=O)C(=O)N[C@H](C(N)=O)[C@@H](C)O [CHEMBL436319] (Ac-[pY]L[X5]QT-NH2)	Active

Same assay, conditions: sheet 6QHD_actives_decoys, retrospective screening set for STAT3 SH2 domain (PDB 6QHD); decoys are presumed inactives, not tested; ref DUD-E; cited from earlier work

Compound	Type
VAITVLVK [Decoy793]	Inactive (Decoy)
C=CCOc1ccc([C@H]2C(C(=O)c3ccc(S(=O)(=O)N(C)C)cc3)=C(O)C(=O)N2CCCN(C)C)cc1OC [Decoy790]	Inactive (Decoy)
CCN(CC)c1ccc(/C=N/Nc2nnc(SCC(=O)Nc3ccc(OC)cc3OC)n2N)c(O)c1 [Decoy877]	Inactive (Decoy)
O=C(CS[C@@H]1NN[C@H](NCc2ccco2)S1)N[C@H](Cc1c[nH]c2ccccc12)C(=O)O [Decoy825]	Inactive (Decoy)
O=C(CNS(=O)(=O)c1ccc(NC(=S)Nc2ccc([N+](=O)[O-])cc2)cc1)c1ccccc1 [Decoy913]	Inactive (Decoy)
CCN(CC)c1ccc(NC(=S)NC(=O)c2ccco2)cc1S(=O)(=O)Nc1ccc(OC)cc1 [Decoy769]	Inactive (Decoy)
CCOC(=O)CNC(=O)[C@H](c1ccc(OC)cc1)N(C(=O)c1snc(C(N)=O)c1N)c1cccc(C)c1 [Decoy735]	Inactive (Decoy)
C=C1NC(=O)[C@@H]([C@@H](C)O)NC(=O)[C@@H](C(C)C)NC(=O)[C@@H](C)[C@@H](O)[C@H](C)[C@@H](CCCCCCCCC)OC1=O [Decoy732]	Inactive (Decoy)
CCOc1ccc(-n2c(Cc3cc(=O)[nH]c(=O)[nH]3)nnc2SCC(=O)Nc2ccc(F)cc2)cc1 [Decoy796]	Inactive (Decoy)
CC[C@H](C)[C@H](O)C(=O)O[C@H](C(=O)O[C@H](C(=O)OC[C@@H](O)[C@@H](O)[C@@H](O)[C@@H](O)CO)[C@@H](C)CC)[C@@H](C)CC [Decoy860]	Inactive (Decoy)

Same assay, conditions: sheet 6QHD_actives_decoys; known STAT3 actives of the retrospective screening set; ref ChEMBL / literature; cited from earlier work

Compound	Type (known STAT3 active)
CC(C)C[C@H](NC(=O)[C@H](Cc1ccc(OP(=O)(O)O)cc1)NC(=O)CCc1ccccc1)C(=O)N1CCC[C@H]1C(=O)N[C@@H](CCC(N)=O)C(=O)N[C@H](C(N)=O)[C@@H](C)O [CHEMBL197844] (Hydrocinnamoyl-[pY]LPQT-NH2)	Active
CC(=O)N[C@@H](Cc1ccc(OP(=O)(O)O)cc1)C(=O)N[C@@H](CC(C)C)C(=O)N1CCC[C@H]1C(=O)N[C@H](CCC(N)=O)C(N)=O [CHEMBL160658] (Ac-[pY]LP[dQ]-NH2)	Active
NC(=O)CC[C@H](NC(=O)[C@@H]1Cc2cccc3c2N1C(=O)[C@@H](NC(=O)/C=C/c1ccc(OP(=O)(O)O)cc1)CC3)C(=O)NCc1ccccc1 [CHEMBL449547]	Active
CSCC[C@H](NC(=O)[C@H](CCC(N)=O)NC(=O)[C@H]1CCCN1C(=O)[C@H](CCCCN)NC(=O)[C@H](Cc1ccc(OP(=O)(O)O)cc1)NC(C)=O)C(=O)N[C@@H](Cc1c[nH]cn1)C(N)=O [CHEMBL160733] (Ac-[pY]K[dP]QMH-NH2)	Active

Same assay, conditions: sheet 6QHD_actives_decoys; retrospective screening set for STAT3 SH2 domain (PDB 6QHD); […]; ref DUD-E; cited from earlier work

Compound	Type
CCOC(=O)[C@@](NC(=O)Nc1ccc(S(=O)(=O)Nc2nnc(SCC)s2)cc1)(c1ccc(F)cc1)C(F)(F)F [Decoy418]	Inactive (Decoy)
NCCCC[C@H](NC(=O)[C@@H](CC(=O)O)NC(=O)[C@@H](CC(=O)O)NC(=O)[C@@H](CC(=O)O)NC(=O)[C@@H](CC(=O)O)NC(=O)CN)C(=O)Nc1ccc2ccccc2c1 [Decoy438] (H-G[dD][dD][dD][dD]K-βNA)	Inactive (Decoy)
COc1ccccc1NS(=O)(=O)c1ccc(OC)c(NS(=O)(=O)c2ccc(C(=O)O)cc2)c1 [Decoy605]	Inactive (Decoy)

Same assay, conditions: sheet 6QHD_actives_decoys; retrospective screening set for STAT3 SH2 domain (PDB 6QHD); decoys generated with DUD-E and presumed inactive, not tested; ref DUD-E; cited from earlier work

Compound	Type
CCOC(=O)c1ccc(NC(=O)CSc2ccc3nnc(CCNS(=O)(=O)c4ccc(OC)cc4)n3n2)cc1 [Decoy704]	Inactive (Decoy)
CCN(CC)S(=O)(=O)c1cc(NC(=O)CSc2nnc(C(F)(F)F)n2N)ccc1C [Decoy478]	Inactive (Decoy)
CCOC(=O)c1c(NC(=O)[C@@H](C)Sc2nnc(CNC(=O)c3cc(OC)cc(OC)c3)n2C)sc2c1CCC2 [Decoy533]	Inactive (Decoy)
COC(=O)CCSCCO[C@@H]1O[C@H](CO)[C@@H](O[C@@H]2O[C@H](CO)[C@@H](O)[C@@H](O)[C@H]2O)[C@H](O)[C@H]1NC(C)=O [Decoy354]	Inactive (Decoy)
COC(=O)[C@@H]1O[C@H](OC/C(=N/NC(N)=O)[C@H]2CC[C@@H]3[C@@H]4CC[C@@H]5C[C@H](OC(C)=O)CC[C@@]5(C)[C@H]4C(=O)C[C@@]23C)[C@@H](OC(C)=O)[C@H](OC(C)=O)[C@H]1OC(C)=O [Decoy497]	Inactive (Decoy)
COc1ccc(CCNC(=O)CN(c2ccc(F)cc2)S(=O)(=O)c2ccc(OC)c(OC)c2)cc1OC [Decoy713]	Inactive (Decoy)
CCCCCCCCCC(=O)O[C@@H]1[C@@H](O[C@@]2(CO)O[C@@H](CO)[C@@H](O)[C@H]2O)O[C@@H](CO)[C@@H](OC(=O)C(C)C)[C@H]1OC(=O)C(C)C [Decoy420]	Inactive (Decoy)
CCN(CC)c1ccc(/C=N/NC(=O)CN(c2cc(Cl)ccc2OC)S(=O)(=O)c2ccc(C)c([N+](=O)[O-])c2)cc1 [Decoy710]	Inactive (Decoy)
COc1cc([N+](=O)[O-])cc(/C=N/NC(=O)CSc2nnc(-c3cccc(Br)c3)n2C)c1O [Decoy639]	Inactive (Decoy)
CC1=C(/C(O)=N/c2ccc(S(N)(=O)=O)cc2)[C@@H](c2ccco2)C(C#N)=C(SCC(=O)Nc2ccc(F)cc2)N1 [Decoy544]	Inactive (Decoy)
C=C1CC[C@@H]2[C@](C)(CC[C@H](O)[C@@]2(C)CO[C@H]2O[C@@H](CO[C@H]3O[C@@H](CO)[C@@H](O)[C@H]3O)[C@@H](O)[C@@H](O)[C@H]2O)[C@@H]1CC/C(C)=C\CO [Decoy611]	Inactive (Decoy)
COC(=O)[C@@H]1O[C@@H](O[C@@H]2CC[C@@]3(C)[C@@H](CC[C@@H]4[C@H]5CC[C@@H](/C(COC(C)=O)=N/NC(N)=O)[C@@]5(C)CC(=O)[C@H]43)C2)[C@H](OC(C)=O)[C@@H](OC(C)=O)[C@@H]1OC(C)=O [Decoy622]	Inactive (Decoy)
[H]/N=C(N/C(N)=N\c1nc(C)c2cc(OC)ccc2n1)\C(C(=O)c1ccccc1)=C(/O)OCC [Decoy667]	Inactive (Decoy)
CC(=O)O[C@H]1[C@@H](O)[C@H](CO)O[C@H](O[C@@H](/C=N\C23CC4CC(CC(C4)C2)C3)[C@@H](CO)O[C@H](O)/C=N/C23CC4CC(CC(C4)C2)C3)[C@@H]1O [Decoy407]	Inactive (Decoy)
CC(=O)N[C@@H]1[C@@H](O)[C@H](O[C@@H]2O[C@H](CO)[C@H](O)[C@H](O[C@@]3(C(=O)O)C[C@H](O)[C@@H](NC(C)=O)[C@H]([C@H](O)[C@H](O)CO)O3)[C@H]2O)[C@@H](CO)O[C@H]1O [Decoy636]	Inactive (Decoy)
CSc1ccc(S(=O)(=O)NCC(=O)OCC(=O)Nc2cccc3nsnc23)cc1[N+](=O)[O-] [Decoy445]	Inactive (Decoy)
O=C(COCCN1CCN([C@@H](c2ccccc2)c2ccc(Cl)cc2)CC1)O[C@@H]1O[C@@H](CO)[C@@H](O[C@@H]2O[C@@H](CO)[C@H](O)[C@H](O)[C@H]2O)[C@H](O)[C@H]1O [Decoy462]	Inactive (Decoy)
CCOC(=O)c1c(NC(=O)CCSc2nnc(N/N=C/c3ccc(C)cc3)n2N)sc2c1CCCC2 [Decoy449]	Inactive (Decoy)
C=C[C@](C)(CC/C=C(\C)CC/C=C(\C)C[C@H](O)/C=C(\C)C(=O)O)O[C@@H]1O[C@H](CO)[C@@H](O)[C@H](O)[C@H]1O[C@@H]1O[C@H](CO)[C@@H](O)[C@H](O)[C@H]1O [Decoy689]	Inactive (Decoy)
